# From patent US20260256794A1, “Oral Dynamine Formulations and Methods Therefor” (Ortho-Nutra, LLC, priority 2023, published 2026)
# Key:
# Type in all cases: in vivo, human
# [1] = tested on: subjects; assay: VAS-Mental Stamina; set-up: VAS-Mental Stamina rating, Mean / VAS-Mental Stamina changes from baseline, Mean Difference ± SE / VAS-Mental Stamina area under the curve, Mean Difference ± SE / VAS-Mental Stamina area under the curve, Mean: scale not given here
# Protocol: (§1) The inventors have discovered various compositions and methods of improving various indices of neurological and neuroenergetic functions by administering 100 mg (once daily) dosages of DYNAMINE™ (dosage between 1.0 and 1.4 mg/kg) as described in the following:
# All neuroenergetic tests as listed below were performed and data were collected after 0 and 4 days of assigned supplements (with acute effects also measured at day 4 over 180 minutes):
# All VAS Measurement (Energy, Sustained Energy, Mental Stamina, Ability to Focus, Ability to Concentrate, Motivation to Accomplish Difficult Tasks, Drive, Vigor, Level of Positive Outlook, Mood, Feelings of Well-Being, Tolerate Stress); Day 0: Two tests were completed. The average of both scores was computed and this value was used in all statistical analysis. Day 4 (0 minutes after ingesting dose #4): Two tests were completed. The average of both scores was computed and this value was used in all statistical analysis. Day 4 (60, 120, and 180 minutes after ingesting dose #4): One test was completed at each time point.
# Neuroenergic parameters are inherently subjective, nevertheless significant in human behavior and well-being. To allow for a standardization among different subjects, the following experiments were performed using a visual analog scale using anchor statements (lowest possible/highest possible) in which subjects were asked to rate their subjective experience with respect to the specific neuroenergic parameters tested.
# VAS-Mental Stamina: In this subjective test, subjects were asked to rate their personal level of energy on a VAS scale using the prompt of “My level of mental stamina right now is . . . ” (with rating lowest possible to highest possible)”. Results were collected as noted above and Table 10 provides exemplary results for Day 0 versus Day 4 ratings, whereas Table 11 provides exemplary acute results measured at Day 4 over a duration of 180 minutes.
# [2] = tested on: subjects; assay: Hemodynamics: diastolic blood pressure; details: for Diastolic blood pressure changes from baseline, Mean Difference ± SE / Diastolic blood pressure changes from baseline, effect size d: between groups (placebo)
# Protocol: as §1
# (§2) Hemodynamics Systolic Blood Pressure, Diastolic Blood Pressure, Heart Rate were taken Pre and Post Stroop Test on Day 0; Pre and Post Stroop Test after 4 Days of Supplementation 0, 60, 120, and 180 minutes after ingestion of 4th dose.
# (§3) For hemodynamic parameters, systolic blood pressure, diastolic blood pressure, and heart rate were taken pre- and post-Stroop Test on Day 0, and pre- and post-Stroop Test after 4 Days of Supplementation 0, 60, 120, and 180 minutes after ingestion of 4th dose.
# [3] = tested on: subjects; assay: Hemodynamics: heart rate
# Protocol: as §2, §3
# [4] = 100 mg once daily, Day 4, 0-180 min, vs Group A (placebo)
# [5] = 100 mg once daily, Day 4, 60 min-0 min, vs Group A (placebo)
# [6] = 100 mg once daily, Day 4, 120 min-0 min, vs Group A (placebo)
# [7] = 100 mg once daily, Day 4, 180 min-0 min, vs Group A (placebo)
# [8] = 100 mg once daily, Day 4, 60 min-0 min
# [9] = 100 mg once daily, Day 4, 120 min-0 min
# [10] = 100 mg once daily, Day 4, 180 min-0 min
structure (smiles),measurement,setting,value
"COc1nc2c(c(=O)n1C)n(C)c(=O)n2C [methylliberine, 2-methoxy-1,7,9-trimethylpurine-6,8-dione]","VAS-Mental Stamina area under the curve, Mean","[1]; 100 mg once daily, Day 4, 0-180 min",1133
same,"VAS-Mental Stamina area under the curve, Mean Difference ± SE",[1]; [4],59.2 ± 46.2
same,"VAS-Mental Stamina area under the curve, effect size d",[1]; [4],0.18
same,"VAS-Mental Stamina rating, Mean","[1]; 100 mg once daily, Day 4, 0 min after dose #4",6.0
same,"VAS-Mental Stamina changes from baseline, Mean Difference ± SE",[1]; [5],−0.12 ± 0.22
same,"VAS-Mental Stamina changes from baseline, effect size d",[1]; [5],−0.15
same,"VAS-Mental Stamina rating, Mean","[1]; 100 mg once daily, Day 4, 60 min after dose #4",6.3
same,"VAS-Mental Stamina changes from baseline, Mean Difference ± SE",[1]; [6],−0.21 ± 0.28
same,"VAS-Mental Stamina changes from baseline, effect size d",[1]; [6],−0.21
same,"VAS-Mental Stamina rating, Mean","[1]; 100 mg once daily, Day 4, 120 min after dose #4",6.3
same,"VAS-Mental Stamina changes from baseline, Mean Difference ± SE",[1]; [7],0.16 ± 0.24
same,"VAS-Mental Stamina changes from baseline, effect size d",[1]; [7],0.15
same,"VAS-Mental Stamina rating, Mean","[1]; 100 mg once daily, Day 4, 180 min after dose #4",6.6
same,"VAS-Mental Stamina rating, Mean",[1]; Day 0 (before supplementation),5.7
same,"Diastolic blood pressure, Mean","[2]; 100 mg once daily, Day 4, 0 min after 4th dose",77.3 mm Hg
same,"Diastolic blood pressure changes from baseline, Mean Difference ± SE",[2]; [8],1.28 ± 1.65 mm Hg
same,"Diastolic blood pressure changes from baseline, effect size d",[2]; [8],−0.21
same,"Diastolic blood pressure, Mean","[2]; 100 mg once daily, Day 4, 60 min after 4th dose",76.9 mm Hg
same,"Diastolic blood pressure changes from baseline, Mean Difference ± SE",[2]; [9],5.84 ± 1.55 mm Hg
same,"Diastolic blood pressure changes from baseline, effect size d",[2]; [9],−0.84
same,"Diastolic blood pressure, Mean","[2]; 100 mg once daily, Day 4, 120 min after 4th dose",75.6 mm Hg
same,"Diastolic blood pressure changes from baseline, Mean Difference ± SE",[2]; [10],2.64 ± 1.66 mm Hg
same,"Diastolic blood pressure changes from baseline, effect size d",[2]; [10],−0.42
same,"Diastolic blood pressure, Mean","[2]; 100 mg once daily, Day 4, 180 min after 4th dose",77.2 mm Hg
same,"Diastolic blood pressure, Mean",[2]; Day 0 (before supplementation),76.6 mm Hg
same,"Heart rate, Mean","[3]; 100 mg once daily, Day 4",69.8 beats/min
same,"Heart rate, Mean",[3]; Day 0 (before supplementation),71.4 beats/min
